Measurements reported in patent EP1715059A1, “Method for the identification of possibly harmful receptor tyrosine kinase (RTK) mutations and of inhibitors or medication directed against RTK mutants” (Esbatech AG, priority 2005, dated 2006).
Structures can show the parent of a compound that is named as a salt. Where two headings read alike, the source gives them in different places.

Columns and labels:
[1] = molecular target: T1, KIT mutant D816Y (Homo sapiens, UniProt P10721, D816Y); test: Yeast cell-based growth rescue assay, KIT mutant; details: 0.2 to 100 µM; yeast strain RLY09/Δptp1; PD180970 effect at the highest concentrations
T1 construct: preferably cytoplasmic domains of RTKs or fragments thereof, are expressed in the cytoplasm of host cells; expressed in transfected cells; host or cells: S. cerevisiae RLY09/Δptp1
T1 sequence (P10721 546-976 D816Y limits assumed): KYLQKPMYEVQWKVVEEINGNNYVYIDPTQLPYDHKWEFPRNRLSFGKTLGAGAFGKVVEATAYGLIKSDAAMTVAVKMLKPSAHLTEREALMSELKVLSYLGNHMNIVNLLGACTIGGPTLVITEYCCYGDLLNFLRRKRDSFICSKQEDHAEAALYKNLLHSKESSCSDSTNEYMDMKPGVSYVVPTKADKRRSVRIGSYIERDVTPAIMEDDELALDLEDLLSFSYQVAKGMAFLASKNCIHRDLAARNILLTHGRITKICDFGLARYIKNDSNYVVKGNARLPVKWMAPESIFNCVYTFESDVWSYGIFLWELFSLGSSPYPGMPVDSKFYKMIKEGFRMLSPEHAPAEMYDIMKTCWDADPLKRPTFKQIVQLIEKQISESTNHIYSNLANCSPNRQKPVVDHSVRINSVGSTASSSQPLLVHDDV
Text: (§1) Expression of wild-type KIT confers only a slight slow growth phenotype in yeast (in the RLY07 strain, under the full-length GAL promoter). Various mutations that occur in human GISTs or in mastocytosis were introduced in the Kit construct expressed in yeast. Expression of the various mutants caused reduced yeast growth but in various extent, likely correlating with various extent of activity (see graphs Figures 7a and 7b) . […] The yeast strain expressing the various Kit proteins in this experiment, was […] which all the Kit proteins produce a similar slow growth phenotype (see values of the window vector/RTK). The starting OD was optimized to obtain windows as similar as possible.

[2] = molecular target: T2, KIT mutant D816V (Homo sapiens, UniProt P10721, D816V); test: Yeast cell-based growth rescue assay, KIT mutant; details: 0.2 to 100 µM; yeast strain RLY09/Δptp1; PD180970 effect at the highest concentrations
T2 construct: preferably cytoplasmic domains of RTKs or fragments thereof, are expressed in the cytoplasm of host cells; expressed in transfected cells; host or cells: S. cerevisiae RLY09/Δptp1
T2 sequence (P10721 546-976 D816V limits assumed): as the sequence (P10721 546-976 D816Y limits assumed) above, with Y271V counted along it
Text: as §1

[3] = molecular target: T3, KIT mutant D816F (Homo sapiens, UniProt P10721, D816F); test: Yeast cell-based growth rescue assay, KIT mutant; details: 0.2 to 100 µM; yeast strain RLY09/Δptp1; PD180970 effect at the highest concentrations
T3 construct: preferably cytoplasmic domains of RTKs or fragments thereof, are expressed in the cytoplasm of host cells; expressed in transfected cells; host or cells: S. cerevisiae RLY09/Δptp1
T3 sequence (P10721 546-976 D816F limits assumed): as the sequence (P10721 546-976 D816Y limits assumed) above, with Y271F counted along it
Text: as §1

[4] = molecular target: K642E (Homo sapiens, UniProt P10721, K642E); details: like wt KIT, literature (25); cited from earlier work
Chain of K642E (P10721 26-976 K642E): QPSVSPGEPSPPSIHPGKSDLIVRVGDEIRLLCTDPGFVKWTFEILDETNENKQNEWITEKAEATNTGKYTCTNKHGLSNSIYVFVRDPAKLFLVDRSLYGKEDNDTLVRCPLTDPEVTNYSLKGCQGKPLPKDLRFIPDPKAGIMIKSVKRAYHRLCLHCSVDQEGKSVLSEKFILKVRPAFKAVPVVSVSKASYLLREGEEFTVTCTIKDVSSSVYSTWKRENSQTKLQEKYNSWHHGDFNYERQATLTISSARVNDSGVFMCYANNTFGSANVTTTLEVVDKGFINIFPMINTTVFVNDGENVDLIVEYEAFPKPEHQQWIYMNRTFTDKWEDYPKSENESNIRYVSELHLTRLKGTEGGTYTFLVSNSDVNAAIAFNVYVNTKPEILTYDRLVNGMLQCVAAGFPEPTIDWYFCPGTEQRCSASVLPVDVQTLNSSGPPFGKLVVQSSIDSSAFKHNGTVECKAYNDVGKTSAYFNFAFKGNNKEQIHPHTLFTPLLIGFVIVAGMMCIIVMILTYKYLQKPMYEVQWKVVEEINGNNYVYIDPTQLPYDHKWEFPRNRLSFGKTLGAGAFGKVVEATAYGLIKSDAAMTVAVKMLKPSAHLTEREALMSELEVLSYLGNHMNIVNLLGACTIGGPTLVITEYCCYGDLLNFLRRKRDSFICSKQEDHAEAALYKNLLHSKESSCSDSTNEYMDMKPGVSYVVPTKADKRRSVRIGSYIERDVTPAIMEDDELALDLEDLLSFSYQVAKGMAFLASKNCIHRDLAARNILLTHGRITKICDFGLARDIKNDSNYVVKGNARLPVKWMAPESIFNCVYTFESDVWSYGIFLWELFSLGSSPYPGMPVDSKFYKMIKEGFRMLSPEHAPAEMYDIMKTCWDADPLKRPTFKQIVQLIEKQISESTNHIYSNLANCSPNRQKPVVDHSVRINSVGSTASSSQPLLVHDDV

[5] = molecular target: T4, RET (Homo sapiens, UniProt P07949); test: Yeast growth assay, selection of specific RTK inhibition (OD 600 nm); format: cell-based; details: 50 µM in the yeast culture
T4 construct: preferably cytoplasmic domains of RTKs or fragments thereof, are expressed in the cytoplasm of host cells; expressed in transfected cells; host or cells: yeast (S. cerevisiae)
T4 sequence (P07949 658-1114 limits assumed): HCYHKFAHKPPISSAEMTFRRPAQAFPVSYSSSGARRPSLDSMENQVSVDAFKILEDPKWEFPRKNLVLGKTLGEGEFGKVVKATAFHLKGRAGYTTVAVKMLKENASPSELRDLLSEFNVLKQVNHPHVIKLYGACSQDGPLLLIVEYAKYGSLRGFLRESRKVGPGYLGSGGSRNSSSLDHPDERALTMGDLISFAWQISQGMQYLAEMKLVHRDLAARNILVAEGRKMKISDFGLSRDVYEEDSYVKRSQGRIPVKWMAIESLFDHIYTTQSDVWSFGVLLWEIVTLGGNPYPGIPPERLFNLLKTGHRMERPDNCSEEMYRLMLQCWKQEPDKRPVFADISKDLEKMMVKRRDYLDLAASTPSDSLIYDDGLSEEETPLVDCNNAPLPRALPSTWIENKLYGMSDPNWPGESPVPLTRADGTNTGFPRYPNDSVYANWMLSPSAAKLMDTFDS
Text: (§2) Selection of specific inhibition of Receptor Tyrosine Kinase activity in yeast.

[6] = molecular target: N822H (Homo sapiens, UniProt P10721, N822H); details: like wt KIT, literature (25); cited from earlier work
Chain of N822H (P10721 26-976 N822H): as the sequence (P10721 26-976 K642E) above, with E617K, N797H counted along it

[7] = test system: PDGFR-β; test: Yeast growth assay, selection of specific RTK inhibition (OD 600 nm); format: cell-based, human; details: 50 µM in the yeast culture
Text: as §2

[8] = molecular target: D816V mutation (Homo sapiens, UniProt P10721, D816V); details: literature (29), cited from earlier work
Chain of D816V mutation (P10721 26-976 D816V): as the sequence (P10721 26-976 K642E) above, with E617K, D791V counted along it

[9] = test system: HMC1.1; details: human cell line HMC1.1 expressing V560G mutation; literature (29); cited from earlier work
[10] = test system: HMC-1 cells; details: literature (23); cited from earlier work
[11] = patients with nonsmall cell lung cancer; cited from earlier work

| Compound | sensitivity of mutant D816Y in yeast (growth rescue) [1] | sensitivity of mutant D816V in yeast (growth rescue) [2] | sensitivity of mutant D816F in yeast (growth rescue) [3] | sensitive in vitro (concentration) [4] | restores growth of cells expressing RET [5] | sensitive in vitro (concentration) [6] | restores growth of PDGFR-β-expressing yeast cells [7] | resistance of D816V mutant to inhibitor [8] | resistance of D816V mutant to inhibitor ([8]; listed as STI571) | apoptosis [9] | KIT phosphorylation [10] | cell proliferation [10] | patients have a rapid and often dramatic clinical response [11] |
| --- | --- | --- | --- | --- | --- | --- | --- | --- | --- | --- | --- | --- | --- |
| Cc1ccc(NC(=O)c2ccc(CN3CCN(C)CC3)cc2)cc1Nc1nccc(-c2cccnc2)n1 [Gleevec, imatinib mesylate] | resistant | resistant | resistant | 100 to 200 nM | not growth of cells expressing RET | 100 to 200 nM | specifically restores growth | resistant | resistance | induce apoptosis | – | – | – |
| Cc1cc(Nc2ncc3cc(-c4c(Cl)cccc4Cl)c(=O)n(C)c3n2)ccc1F [PD180970] | slight effect | slight effect | slight effect | – | – | – | – | resistant | – | – | inhibits | inhibits | – |
| COc1cc2ncnc(Nc3ccc(F)c(Cl)c3)c2cc1OCCCN1CCOCC1 [gefitinib] | – | – | – | – | – | – | – | – | – | – | – | – | 10% |
